In patent US12391685B2, “Inhibitors of RNA-guided nuclease target binding and uses thereof” (THE BROAD INSTITUTE, INC., priority 2018, dated 2025):

Each compound was assayed against SpCas9 (Streptococcus pyogenes serotype M1, UniProt Q99ZW2) (assay: eGFP-disruption assay in U2OS.eGFP.PEST cells). Conditions: screen of structural analogs of BRD7087; 15 μM compound, 24 h, U2OS.eGFP.PEST cells.
SpCas9, sequence (Q99ZW2 whole entry): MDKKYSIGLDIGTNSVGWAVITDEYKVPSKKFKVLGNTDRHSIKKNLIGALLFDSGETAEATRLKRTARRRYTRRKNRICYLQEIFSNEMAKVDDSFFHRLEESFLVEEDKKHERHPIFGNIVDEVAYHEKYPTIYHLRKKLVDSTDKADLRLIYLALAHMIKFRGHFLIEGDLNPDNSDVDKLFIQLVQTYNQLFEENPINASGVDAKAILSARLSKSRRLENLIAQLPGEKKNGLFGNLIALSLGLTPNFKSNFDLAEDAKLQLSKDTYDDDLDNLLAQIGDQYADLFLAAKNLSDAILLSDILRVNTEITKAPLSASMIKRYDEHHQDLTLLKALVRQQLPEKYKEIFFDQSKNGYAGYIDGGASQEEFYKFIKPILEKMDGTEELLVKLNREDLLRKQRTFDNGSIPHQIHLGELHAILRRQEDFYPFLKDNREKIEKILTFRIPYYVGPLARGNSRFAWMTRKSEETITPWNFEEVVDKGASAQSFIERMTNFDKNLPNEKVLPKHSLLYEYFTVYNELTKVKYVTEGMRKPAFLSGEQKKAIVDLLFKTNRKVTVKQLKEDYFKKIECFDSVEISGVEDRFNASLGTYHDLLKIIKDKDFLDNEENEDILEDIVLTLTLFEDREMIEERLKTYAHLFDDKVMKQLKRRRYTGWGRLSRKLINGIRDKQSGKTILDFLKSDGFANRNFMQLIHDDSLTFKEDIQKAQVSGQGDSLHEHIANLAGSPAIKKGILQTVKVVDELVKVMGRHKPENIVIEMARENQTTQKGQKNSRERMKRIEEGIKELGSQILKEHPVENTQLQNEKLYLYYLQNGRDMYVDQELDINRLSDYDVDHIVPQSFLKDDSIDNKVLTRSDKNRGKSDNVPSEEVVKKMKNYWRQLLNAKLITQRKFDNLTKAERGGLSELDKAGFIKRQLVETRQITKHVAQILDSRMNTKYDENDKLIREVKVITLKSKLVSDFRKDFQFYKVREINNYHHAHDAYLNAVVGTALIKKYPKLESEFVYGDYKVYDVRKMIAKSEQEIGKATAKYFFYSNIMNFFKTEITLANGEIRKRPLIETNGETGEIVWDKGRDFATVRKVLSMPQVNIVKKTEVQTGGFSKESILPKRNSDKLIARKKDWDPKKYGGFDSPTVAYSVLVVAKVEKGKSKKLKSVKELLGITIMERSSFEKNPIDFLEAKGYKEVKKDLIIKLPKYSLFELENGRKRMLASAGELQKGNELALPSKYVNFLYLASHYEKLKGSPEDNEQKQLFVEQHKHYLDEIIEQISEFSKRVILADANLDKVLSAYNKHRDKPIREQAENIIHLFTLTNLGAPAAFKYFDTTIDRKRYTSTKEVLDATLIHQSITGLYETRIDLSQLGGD
Format: cell-based, S. pyogenes
Design: host or cells: U2OS.eGFP.PEST
Method: SpCas9 nuclease activity in eGFP-disruption assay. Approximately 200,000 U2OS.eGFP-PEST cells were nucleofected following two different methods either by nucleofecting plasmids or RNP using the SE Cell Line 4D-Nucleofector™ X Kit (Lonza) according to the manufacturer's protocol. In the plasmid nucleofection method, cells were nucleofected either with 440 ng of SpCas9 (Addgene Plasmid #43861) or 400 ng of SpCas9 along with 40 ng of sgRNA (pFYF1320 eGFP Site #1, Addgene Plasmid #47511). Cells nucleofected only with SpCas9-expressing plasmid were used as the transfection control. In the RNP nucleofection method, either […] SpCas9 or 20 pmol preformed SpCas9:gRNA (eGFP Site #1) complex were nucleofected. Approximately 20,000 transfected cells/well were plated in 4 replicates in a 96-well plate (Corning® 3904). Cells were incubated with the indicated amount of compound or DMSO for 24 h post transfection. A DMSO solution of compound (20 mM) was resuspended in the 10% FBS containing growth media and thoroughly mixed before adding to the cells. Cells were then fixed using 4% paraformaldehyde and imaged with the HCS NuclearMask™ Blue Stain (Life Technologies) as the nuclear counter-staining agent. Imaging was performed with an ImageXpress Micro automated microscope (Molecular Devices) at 10× magnification under three excitation channels (blue, green and red) acquiring nine sites per well. Images were analyzed using MetaXpress software and data were plotted using GraphPad Prism 6.
The Z′-value was calculated using the equation (1), where σ1 and σ2 are the standard deviations of DMSO control and SpCas9:gRNA control respectively. μ1 and μ2 are the mean % GFP^− cell population for DMSO control and SpCas9:gRNA control, respectively.
In the case of `COc1cccc(S(=O)(=O)N2CC[C@@H]3[C@H](CO)N(C)c4ccc(C#Cc5cccnc5)cc4[C@@H]32)c1` [BRD-K29966477], the “Average Inhibition activity” value is reported as 57.5, the “Inhibition activity Rep 1” value is reported as 50.1 and the “Inhibition activity Rep 2” value is reported as 64.8. For `O=C(C1CC1)N1CC[C@@H]2[C@H](CO)Nc3ccc(Br)cc3[C@@H]21` [BRD-K31090697], the “Average Inhibition activity” value was 48.0, the “Inhibition activity Rep 1” value was 46.0 and the “Inhibition activity Rep 2” value was 49.9. In the case of `CCC(=O)N1CC[C@H]2[C@@H]1c1cc(C#Cc3ccccc3OC)ccc1N(C)[C@H]2CO` [BRD-K31513357], the “Average Inhibition activity” value is reported as 66.7, the “Inhibition activity Rep 1” value is reported as 59.8 and the “Inhibition activity Rep 2” value is reported as 73.6. For `CN1c2ccc(-c3ccccc3F)cc2[C@H]2[C@H](CCN2C(=O)NC2CCCCC2)[C@H]1CO` [BRD-K35104316], the “Average Inhibition activity” value was 49.1, the “Inhibition activity Rep 1” value was 54.2 and the “Inhibition activity Rep 2” value was 44.1. `CN1c2ccc(C#Cc3cccnc3)cc2[C@@H]2[C@@H](CCN2S(=O)(=O)c2ccccc2F)[C@H]1CO` [BRD-K39647256] was tested, and the “Average Inhibition activity” value was 54.9, the “Inhibition activity Rep 1” value was 51.3 and the “Inhibition activity Rep 2” value was 58.4. For `COc1ccccc1C#Cc1ccc2c(c1)[C@H]1NCC[C@H]1[C@@H](CO)N2` [BRD-K39870434], the “Average Inhibition activity” value was 68.1, the “Inhibition activity Rep 1” value was 53.7 and the “Inhibition activity Rep 2” value was 82.5. For `CN1c2ccc(-c3ccc(C#N)cc3)cc2[C@@H]2[C@@H](CCN2S(=O)(=O)c2cccc(F)c2)[C@H]1CO` [BRD-K40448176], the “Average Inhibition activity” value was 51.6, the “Inhibition activity Rep 1” value was 52.1 and the “Inhibition activity Rep 2” value was 51.2. `CCCC#Cc1ccc2c(c1)[C@@H]1[C@@H](CCN1S(=O)(=O)c1ccccc1OC)[C@@H](CO)N2` [BRD-K43330291] was tested, and the “Average Inhibition activity” value was 59.3, the “Inhibition activity Rep 1” value was 68.2 and the “Inhibition activity Rep 2” value was 50.4. `CN1c2ccc(C#Cc3cccnc3)cc2[C@@H]2[C@@H](CCN2C(=O)c2cccc(F)c2)[C@H]1CO` [BRD-K46446619] was tested, and the “Average Inhibition activity” value was 64.6, the “Inhibition activity Rep 1” value was 63.4 and the “Inhibition activity Rep 2” value was 65.9. For `O=S(=O)(c1ccc(F)cc1)N1CC[C@@H]2[C@H](CO)Nc3ccc(C#CC4CC4)cc3[C@@H]21` [BRD-K47320872], the “Average Inhibition activity” value was 45.1, the “Inhibition activity Rep 1” value was 44.5 and the “Inhibition activity Rep 2” value was 45.7. `CCC(=O)N1CC[C@@H]2[C@H]1c1cc(C#Cc3ccc(F)cc3)ccc1N[C@@H]2CO` [BRD-K49114971] was tested, and the “Average Inhibition activity” value was 56.1, the “Inhibition activity Rep 1” value was 49.0 and the “Inhibition activity Rep 2” value was 63.1. For `Cc1ccc(S(=O)(=O)N2CC[C@@H]3[C@H](CO)Nc4ccc(-c5cccc(C(=O)N(C)C)c5)cc4[C@@H]32)cc1` [BRD-K51395794], the “Average Inhibition activity” value was 53.9, the “Inhibition activity Rep 1” value was 46.5 and the “Inhibition activity Rep 2” value was 61.3. `CN1c2ccc(-c3cccc(C#N)c3)cc2[C@H]2[C@H](CCN2C(=O)C2CCCCC2)[C@H]1CO` [BRD-K53346571] was tested, and the “Average Inhibition activity” value was 52.7, the “Inhibition activity Rep 1” value was 49.1 and the “Inhibition activity Rep 2” value was 56.3. For `COc1ccc(C#Cc2ccc3c(c2)[C@H]2[C@H](CCN2C(=O)c2ccccc2F)[C@H](CO)N3C)cc1` [BRD-K56594357], the “Average Inhibition activity” value was 57.9, the “Inhibition activity Rep 1” value was 55.8 and the “Inhibition activity Rep 2” value was 59.9. With `CN1c2ccc(C#Cc3cccnc3)cc2[C@H]2[C@H](CCN2S(=O)(=O)c2ccccc2F)[C@@H]1CO` [BRD-K58893765] the “Average Inhibition activity” value was 62.6, the “Inhibition activity Rep 1” value was 67.8 and the “Inhibition activity Rep 2” value was 57.4. `O=C(C1CCCCC1)N1CC[C@@H]2[C@H](CO)Nc3ccc(Br)cc3[C@@H]21` [BRD-K60987574] was tested, and the “Average Inhibition activity” value was 60.9, the “Inhibition activity Rep 1” value was 59.5 and the “Inhibition activity Rep 2” value was 62.2. `N#Cc1ccc(-c2ccc3c(c2)[C@H]2[C@H](CCN2C(=O)Cc2ccccc2)[C@@H](CO)N3)cc1` [BRD-K63155325] was tested, and the “Average Inhibition activity” value was 57.6, the “Inhibition activity Rep 1” value was 63.0 and the “Inhibition activity Rep 2” value was 52.1. `O=S(=O)(c1cccc(F)c1)N1CC[C@H]2[C@H](CO)Nc3ccc(C#Cc4ccccc4F)cc3[C@H]21` [BRD-K67297693] was tested, and the “Average Inhibition activity” value was 72.2, the “Inhibition activity Rep 1” value was 64.3 and the “Inhibition activity Rep 2” value was 80.1. With `COc1ccc(S(=O)(=O)N2CC[C@@H]3[C@H](CO)N(C)c4ccc(-c5ccccc5F)cc4[C@@H]32)cc1` [BRD-K69451415] the “Average Inhibition activity” value was 53.4, the “Inhibition activity Rep 1” value was 56.2 and the “Inhibition activity Rep 2” value was 50.6. With `COc1ccc(C#Cc2ccc3c(c2)[C@@H]2[C@@H](CCN2Cc2nccs2)[C@@H](CO)N3)cc1` [BRD-K70808105] the “Average Inhibition activity” value was 51.5, the “Inhibition activity Rep 1” value was 47.4 and the “Inhibition activity Rep 2” value was 55.6. With `OC[C@@H]1Nc2ccc(C#Cc3cccnc3)cc2[C@H]2NCC[C@@H]12` [BRD-K71200053] the “Average Inhibition activity” value was 67.6, the “Inhibition activity Rep 1” value was 54.6 and the “Inhibition activity Rep 2” value was 80.6. For `O=C(C1CCCCC1)N1CC[C@@H]2[C@H](CO)Nc3ccc(C#Cc4ccc(F)cc4)cc3[C@@H]21` [BRD-K72901141], the “Average Inhibition activity” value was 49.5, the “Inhibition activity Rep 1” value was 53.2 and the “Inhibition activity Rep 2” value was 45.9. With `COc1ccccc1NC(=O)N1CC[C@@H]2[C@H]1c1cc(C#Cc3cccc(F)c3)ccc1N(C)[C@@H]2CO` [BRD-K77165899] the “Average Inhibition activity” value was 53.5, the “Inhibition activity Rep 1” value was 47.0 and the “Inhibition activity Rep 2” value was 59.9. For `O=C(c1ccc(F)cc1)N1CC[C@@H]2[C@H]1c1cc(C#Cc3ccccc3F)ccc1N[C@@H]2CO` [BRD-K79906422], the “Average Inhibition activity” value was 51.1, the “Inhibition activity Rep 1” value was 51.3 and the “Inhibition activity Rep 2” value was 50.9. In the case of `CN1c2ccc(-c3ccccc3F)cc2[C@@H]2[C@@H](CCN2C(=O)NC2CCCCC2)[C@H]1CO` [BRD-K80765942], the “Average Inhibition activity” value is reported as 50.0, the “Inhibition activity Rep 1” value is reported as 50.5 and the “Inhibition activity Rep 2” value is reported as 49.6. `C/C=C/c1ccc2c(c1)[C@H]1[C@H](CCN1C(=O)c1ccc(F)cc1)[C@H](CO)N2` [BRD-K81261525] was tested, and the “Average Inhibition activity” value was 74.3, the “Inhibition activity Rep 1” value was 71.3 and the “Inhibition activity Rep 2” value was 77.4. In the case of `CN1c2ccc(C#Cc3ccc(F)cc3)cc2[C@@H]2[C@@H](CCN2C(=O)CN2CCOCC2)[C@H]1CO` [BRD-K82266131], the “Average Inhibition activity” value is reported as 56.9, the “Inhibition activity Rep 1” value is reported as 51.7 and the “Inhibition activity Rep 2” value is reported as 62.1. In the case of `COc1ccccc1C#Cc1ccc2c(c1)[C@H]1[C@H](CCN1C(=O)c1cccc(F)c1)[C@H](CO)N2` [BRD-K83261893], the “Average Inhibition activity” value is reported as 45.7, the “Inhibition activity Rep 1” value is reported as 47.1 and the “Inhibition activity Rep 2” value is reported as 44.3. With `COc1ccc(S(=O)(=O)N2CC[C@H]3[C@@H](CO)N(C)c4ccc(C#Cc5ccccc5OC)cc4[C@H]32)cc1` [BRD-K83448282] the “Average Inhibition activity” value was 45.7, the “Inhibition activity Rep 1” value was 46.7 and the “Inhibition activity Rep 2” value was 44.6. With `CN(C)C(=O)c1cccc(-c2ccc3c(c2)[C@@H]2[C@@H](CCN2C(=O)c2ccc4c(c2)OCO4)[C@@H](CO)N3)c1` [BRD-K83829793] the “Average Inhibition activity” value was 53.1, the “Inhibition activity Rep 1” value was 61.0 and the “Inhibition activity Rep 2” value was 45.2. With `O=C(C1CCCCC1)N1CC[C@@H]2[C@H]1c1cc(C#Cc3ccc(F)cc3)ccc1N[C@@H]2CO` [BRD-K88933335] the “Average Inhibition activity” value was 45.7, the “Inhibition activity Rep 1” value was 47.8 and the “Inhibition activity Rep 2” value was 43.7. `CN1c2ccc(C#Cc3cccnc3)cc2[C@H]2[C@H](CCN2C(=O)C2CCCCC2)[C@@H]1CO` [BRD-K89354425] was tested, and the “Average Inhibition activity” value was 82.0, the “Inhibition activity Rep 1” value was 85.4 and the “Inhibition activity Rep 2” value was 78.7. `OC[C@@H]1Nc2ccc(-c3ccccc3)cc2[C@@H]2[C@H]1CCN2Cc1ccc(F)cc1` [BRD-K90247032] was tested, and the “Average Inhibition activity” value was 49.3, the “Inhibition activity Rep 1” value was 47.6 and the “Inhibition activity Rep 2” value was 51.1. For `O=C(c1ccccc1)N1CC[C@@H]2[C@H]1c1cc(C#CC3CCCCC3)ccc1N[C@@H]2CO` [BRD-K92041481], the “Average Inhibition activity” value was 68.3, the “Inhibition activity Rep 1” value was 57.8 and the “Inhibition activity Rep 2” value was 78.8. With `COc1cccc(S(=O)(=O)N2CC[C@H]3[C@@H](CO)N(C)c4ccc(C#Cc5cccnc5)cc4[C@H]32)c1` [BRD-K92333822] the “Average Inhibition activity” value was 55.1, the “Inhibition activity Rep 1” value was 53.1 and the “Inhibition activity Rep 2” value was 57.1. `O=C(c1cccc(F)c1)N1CC[C@@H]2[C@H](CO)Nc3ccc(-c4ccccc4)cc3[C@@H]21` [BRD-K94204229] was tested, and the “Average Inhibition activity” value was 57.0, the “Inhibition activity Rep 1” value was 47.5 and the “Inhibition activity Rep 2” value was 66.6. `CN1c2ccc(-c3ccc(F)cc3)cc2[C@H]2[C@H](CCN2S(=O)(=O)c2cccc(F)c2)[C@@H]1CO` [BRD-K98925777] was tested, and the “Average Inhibition activity” value was 49.4, the “Inhibition activity Rep 1” value was 53.6 and the “Inhibition activity Rep 2” value was 45.2.

Same assay, conditions: structural analogs of BRD0539, R2=a, R1 varied
In the case of `Cc1cccc(S(=O)(=O)N2CCC3C(CO)Nc4ccc(-c5ccccc5F)cc4C32)c1` (stereo not shown) [Compound 4], the “decrease of activity with respect to BRD0539” value is reported as 47%.
